Measured values reported in ChEMBL document CHEMBL1201862, “PubChem BioAssay data set” (2004).
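Growth conditions: 96-well plates. Treatment: test compound, 48 hours, 5 concentrations. Analysis: linear interpolation between bracketing concentrations; unreached endpoints set to highest concentration. Here, GI50 denotes the concentration required for 50% inhibition of growth.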 Active and inactive are the calls of the source. No stated cut-off is given here; in the data, active = GI50 up to about 1.1 µM and inactive = higher.

What was measured:
Experiment in all cases: NCI-60 cell line screen, 48 h
[1] = system: BT-549
[2] = system: CAKI-1
[3] = system: HOP-92
[4] = system: MDA-MB-231
[5] = system: SF-268
[6] = system: MOLT-4
[7] = system: PC-3
[8] = system: HT-29
[9] = system: UO-31
[10] = system: SF-295
[11] = system: 786-0
[12] = system: MDA-MB-435
[13] = system: M14
[14] = system: TK-10
[15] = system: SN12C
[16] = system: OVCAR-8
[17] = system: SNB-19
[18] = system: COLO 205
[19] = system: SR
[20] = system: ACHN
[21] = system: SNB-75
[22] = system: NCI-H460
[23] = system: HCT-116
[24] = system: EKVX
[25] = system: RXF 393
[26] = system: HL-60
[27] = system: UACC-62
[28] = system: IGROV-1
[29] = system: A498
[30] = system: Malme-3M
[31] = system: KM12
[32] = system: NCI-H23
[33] = system: MDA-N
[34] = system: SK-MEL-28
[35] = system: HCC 2998
[36] = system: MCF7
[37] = system: SK-OV-3
[38] = system: HOP-62
[39] = system: T47D
[40] = system: DU-145
[41] = system: Hs-578T
[42] = system: HCT-15
[43] = system: OVCAR-5
[44] = system: OVCAR-4
[45] = system: SK-MEL-2
[46] = system: CCRF-CEM
[47] = system: UACC-257
[48] = system: RPMI-8226
[49] = system: NCI/ADR-RES
[50] = system: OVCAR-3
[51] = system: LOX IMVI
[52] = system: K562
[53] = system: SW-620
[54] = system: U-251
[55] = system: SF-539
[56] = system: SK-MEL-5
[57] = system: A549
[58] = system: NCI-H226
[59] = system: NCI-H522

With `COc1ccc(/C=C2\C(=O)N(C3OC(COC(C)=O)C(OC(C)=O)C(OC(C)=O)C3OC(C)=O)c3ccccc3N=C2N)cc1` (centres undefined) the GI50 [1] was 23.9 µM (inactive), the GI50 [2] was 31.4 µM (inactive) and the GI50 [3] was 71.4 µM (inactive). For the same compound, the GI50 [4] was 43.5 µM (inactive), the GI50 [5] was 32.5 µM (inactive) and the GI50 [6] was 18.3 µM (inactive). For the same compound, the GI50 [7] was 23.7 µM (inactive), the GI50 [8] was 18.8 µM (inactive) and the GI50 [9] was 32.4 µM (inactive). For the same compound, the GI50 [10] was 21.9 µM (inactive), the GI50 [11] was 17.5 µM (inactive) and the GI50 [12] was 4.65 µM (inactive). The GI50 [13] was 20.7 µM (inactive), the GI50 [14] was 34 µM (inactive) and the GI50 [15] was 36.9 µM (inactive). The GI50 [16] was 19.4 µM (inactive), the GI50 [17] was 42.7 µM (inactive) and the GI50 [18] was 15.6 µM (inactive). The GI50 [19] was 5.37 µM (inactive), the GI50 [20] was 38.5 µM (inactive) and the GI50 [21] was 23.2 µM (inactive). For the same compound, the GI50 [22] was 25.1 µM (inactive), the GI50 [23] was 19.7 µM (inactive) and the GI50 [24] was 26.8 µM (inactive). For the same compound, the GI50 [25] was 21.8 µM (inactive), the GI50 [26] was 18.2 µM (inactive) and the GI50 [27] was 17.5 µM (inactive). For the same compound, the GI50 [28] was 27.3 µM (inactive), the GI50 [29] was 28.2 µM (inactive) and the GI50 [30] was 27.4 µM (inactive). The GI50 [31] was 16.9 µM (inactive), the GI50 [32] was 20 µM (inactive) and the GI50 [33] was 4.48 µM (inactive). The GI50 [34] was 23.9 µM (inactive), the GI50 [35] was 21.8 µM (inactive) and the GI50 [36] was 19.1 µM (inactive). The GI50 [37] was 27.6 µM (inactive), the GI50 [38] was 28.9 µM (inactive) and the GI50 [39] was 14 µM (inactive). The GI50 [40] was 25.7 µM (inactive), the GI50 [41] was 34.6 µM (inactive) and the GI50 [42] was 12.9 µM. The GI50 [43] was 33.9 µM (inactive), the GI50 [44] was 33.5 µM (inactive) and the GI50 [45] was 23.1 µM (inactive). The GI50 [46] was 16.8 µM (inactive), the GI50 [47] was 24.5 µM (inactive) and the GI50 [48] was 16 µM (inactive). For the same compound, the GI50 [49] was 20.5 µM (inactive), the GI50 [50] was 23.2 µM (inactive) and the GI50 [51] was 24.5 µM (inactive). For the same compound, the GI50 [52] was 11.9 µM (inactive), the GI50 [53] was 30.7 µM (inactive) and the GI50 [54] was 27.1 µM (inactive). For the same compound, the GI50 [55] was 9.06 µM (inactive), the GI50 [56] was 11.3 µM (inactive) and the GI50 [57] was 29.2 µM (inactive).

With `Cc1c(-c2ccccc2)oc(=O)c2ccccc12` the GI50 [1] was 13.7 µM (inactive), the GI50 [2] was 22.4 µM (inactive) and the GI50 [3] was 11.8 µM (inactive). The GI50 [4] was 16.7 µM (inactive), the GI50 [5] was 17.4 µM (inactive) and the GI50 [6] was 11 µM (inactive). For the same compound, the GI50 [7] was 24.4 µM (inactive), the GI50 [8] was 15.5 µM (inactive) and the GI50 [9] was 19 µM (inactive). The GI50 [10] was 18.3 µM (inactive), the GI50 [11] was 24.2 µM (inactive) and the GI50 [58] was 17.5 µM (inactive). The GI50 [12] was 15.6 µM (inactive), the GI50 [13] was 22.5 µM (inactive) and the GI50 [14] was 23.6 µM (inactive). The GI50 [15] was 17.7 µM (inactive), the GI50 [16] was 27.1 µM (inactive) and the GI50 [17] was 30.7 µM (inactive). The GI50 [18] was 16 µM (inactive), the GI50 [19] was 10.3 µM (inactive) and the GI50 [20] was 26.2 µM (inactive). For the same compound, the GI50 [21] was 12.4 µM (inactive), the GI50 [22] was 26.4 µM (inactive) and the GI50 [23] was 24.6 µM (inactive). For the same compound, the GI50 [24] was 18.5 µM (inactive), the GI50 [25] was 16.5 µM (inactive) and the GI50 [27] was 16.9 µM (inactive). The GI50 [28] was 20.2 µM (inactive), the GI50 [29] was > 10 µM (inactive) and the GI50 [30] was 21.7 µM (inactive). For the same compound, the GI50 [31] was 23.4 µM (inactive), the GI50 [32] was 24.8 µM (inactive) and the GI50 [33] was 20 µM (inactive). The GI50 [34] was 19.4 µM (inactive), the GI50 [35] was 18.2 µM (inactive) and the GI50 [36] was 20.4 µM (inactive). The GI50 [37] was 22.8 µM (inactive), the GI50 [38] was 22.1 µM (inactive) and the GI50 [39] was 30.5 µM (inactive). The GI50 [40] was 37.7 µM (inactive), the GI50 [41] was 17.1 µM (inactive) and the GI50 [42] was 19.8 µM. For the same compound, the GI50 [43] was 30.8 µM (inactive), the GI50 [44] was 17.5 µM (inactive) and the GI50 [59] was 13.8 µM (inactive). For the same compound, the GI50 [45] was 20.4 µM (inactive), the GI50 [46] was 18.4 µM (inactive) and the GI50 [47] was 15.5 µM (inactive). The GI50 [48] was 16.7 µM (inactive), the GI50 [49] was 28.4 µM (inactive) and the GI50 [50] was 20.2 µM (inactive). The GI50 [51] was 19.1 µM (inactive), the GI50 [52] was 30.2 µM (inactive) and the GI50 [54] was 17.9 µM (inactive). For the same compound, the GI50 [55] was 18.3 µM (inactive), the GI50 [56] was 18.5 µM (inactive) and the GI50 [57] was 25 µM (inactive).

In the case of `O=C(O)Cc1c(O)ccc2ccccc12`, the GI50 [1] is reported as > 100 µM (inactive), the GI50 [2] is reported as > 100 µM (inactive) and the GI50 [3] is reported as > 100 µM (inactive). For the same compound, the GI50 [4] was > 100 µM (inactive), the GI50 [5] was > 100 µM (inactive) and the GI50 [6] was > 100 µM (inactive). For the same compound, the GI50 [7] was > 100 µM (inactive), the GI50 [8] was > 100 µM (inactive) and the GI50 [10] was > 100 µM (inactive). For the same compound, the GI50 [11] was > 100 µM (inactive), the GI50 [58] was > 100 µM (inactive) and the GI50 [12] was > 100 µM (inactive). For the same compound, the GI50 [13] was > 100 µM (inactive), the GI50 [14] was > 100 µM (inactive) and the GI50 [15] was > 100 µM (inactive). The GI50 [16] was > 100 µM (inactive), the GI50 [17] was > 100 µM (inactive) and the GI50 [18] was > 100 µM (inactive). The GI50 [19] was > 100 µM (inactive), the GI50 [20] was > 100 µM (inactive) and the GI50 [21] was > 100 µM (inactive). For the same compound, the GI50 [22] was > 100 µM (inactive), the GI50 [23] was > 100 µM (inactive) and the GI50 [24] was > 100 µM (inactive). For the same compound, the GI50 [25] was > 100 µM (inactive), the GI50 [27] was > 100 µM (inactive) and the GI50 [28] was > 100 µM (inactive). For the same compound, the GI50 [29] was > 100 µM (inactive), the GI50 [30] was > 100 µM (inactive) and the GI50 [31] was > 100 µM (inactive). For the same compound, the GI50 [32] was > 100 µM (inactive), the GI50 [33] was > 100 µM (inactive) and the GI50 [34] was > 100 µM (inactive). The GI50 [36] was > 100 µM (inactive), the GI50 [37] was > 100 µM (inactive) and the GI50 [38] was > 100 µM (inactive). The GI50 [39] was > 100 µM (inactive), the GI50 [40] was > 100 µM (inactive) and the GI50 [41] was > 100 µM (inactive). For the same compound, the GI50 [42] was > 100 µM, the GI50 [43] was > 100 µM (inactive) and the GI50 [44] was > 100 µM (inactive). For the same compound, the GI50 [59] was > 100 µM (inactive), the GI50 [45] was > 100 µM (inactive) and the GI50 [47] was > 100 µM (inactive). The GI50 [48] was > 100 µM (inactive), the GI50 [49] was > 100 µM (inactive) and the GI50 [50] was > 100 µM (inactive). The GI50 [51] was > 100 µM (inactive), the GI50 [52] was > 100 µM (inactive) and the GI50 [53] was > 100 µM (inactive). For the same compound, the GI50 [54] was > 100 µM (inactive), the GI50 [55] was > 100 µM (inactive) and the GI50 [56] was > 100 µM (inactive). For the same compound, the GI50 [57] was > 100 µM (inactive).
